Columns and labels:
[1] = tested on: Fusarium culmorum; test: whole plant or invertebrate; assay type: in vivo; settings: in Triticum aestivum, read-out: control of Fusarium culmorum
[2] = tested on: Fusarium culmorum; test: microbe, parasite or virus in culture; assay type: cell-based; settings: read-out: control of Fusarium culmorum
[3] = tested on: Glomerella lagenarium (Colletotrichum lagenarium); test: Glomerella lagenarium (Colletotrichum lagenarium) / liquid culture (anthracnose); assay type: cell-based; settings: Colletotrichum orbiculare; read-out: control of Glomerella lagenarium
[4] = tested on: Botryotinia fuckeliana (Botrytis cinerea); test: Botryotinia fuckeliana (Botrytis cinerea) / liquid culture (gray mould); assay type: cell-based; settings: 72 h, read-out: control of Botryotinia fuckeliana

Question: With CC(C=C(F)F)(Cc1ccccc1)NC(=O)c1cnc2c(F)cccc2c1 (stereo not shown) [Compound E-94, N-(1-benzyl-3,3-difluoro-1-methyl-allyl)-8-fluoro-quinoline-3-carboxamide] as the molecule, how does the pest or weed control at 200 ppm [1] read?
Answer: ≥ 80%

Question: And the inhibition of growth at 200 ppm [2]?
Answer: ≥ 80%

Question: What about the inhibition of growth at 200 ppm [3] of the same molecule?
Answer: ≥ 80%

Question: And the melting point?
Answer: 99 to 101 °C

Question: What about the inhibition of growth at 200 ppm [4] of the same molecule?
Answer: ≥ 80%

Question: What does the source list for Cc1c(C(=O)NC(C)(Cc2ccccc2)CC(F)(F)F)cnc2c(Cl)cccc12 (stereo not shown) [Compound E-104, N-(1-benzyl-3,3,3-trifluoro-1-methyl-propyl)-8-chloro-4-methyl-quinoline-3-carboxamide]?
Answer: pest or weed control at 200 ppm [1]: ≥ 80%; inhibition of growth at 200 ppm [2]: ≥ 80%; inhibition of growth at 200 ppm [3]: ≥ 80%; melting point: 184 to 186 °C; inhibition of growth at 200 ppm [4]: ≥ 80%

Question: With CC(C)CC(C)(Cc1ccccc1)NC(=O)c1cnc2c(C#N)cccc2c1 (stereo not shown) as the molecule, how does the melting point read?
Answer: 160 to 162 °C

Question: Which melting point does the source give for COc1ccc2ncc(C(=O)NC(C)(Cc3ccccc3)CC(C)C)cc2c1 (stereo not shown) [Compound E-63, N-(1-benzyl-1,3-dimethyl-butyl)-6-methoxy-quinoline-3-carboxamide] here?
Answer: 102 to 105 °C

Question: What about the inhibition of growth at 200 ppm [4] of the same molecule?
Answer: ≥ 80%

Question: For Cc1nc2c(Cl)cccc2cc1C(=O)NC(C)(Cc1ccccc1)CC(F)(F)F (stereo not shown) [Compound E-110, N-(1-benzyl-3,3,3-trifluoro-1-methyl-propyl)-8-chloro-2-methyl-quinoline-3-carboxamide], which inhibition of growth at 200 ppm [2] is on record?
Answer: ≥ 80%

Question: What about the melting point of the same molecule?
Answer: 176 to 179 °C

Question: What about the inhibition of growth at 200 ppm [4] of the same molecule?
Answer: ≥ 80%

Question: For CC(C#N)(Cc1ccccc1Cl)NC(=O)c1cnc2c(F)cccc2c1 (stereo not shown) [Compound E-18, N-[2-(2-chlorophenyl)-1-cyano-1-methyl-ethyl]-8-fluoro-quinoline-3-carboxamide], which inhibition of growth at 200 ppm [2] is on record?
Answer: ≥ 80%

Question: What about the melting point of the same molecule?
Answer: 198 to 203 °C

Question: What about the inhibition of growth at 200 ppm [4] of the same molecule?
Answer: ≥ 80%

Question: With CC(Cc1ccccc1)(CC(F)(F)F)NC(=S)c1cnc2c(F)cccc2c1 (stereo not shown) [Compound E-115, N-(1-benzyl-3,3,3-trifluoro-1-methyl-propyl)-8-fluoro-quinoline-3-carbothioamide] as the molecule, how does the inhibition of growth at 200 ppm [2] read?
Answer: ≥ 80%

Question: And the inhibition of growth at 200 ppm [3]?
Answer: ≥ 80%

Question: What about the melting point of the same molecule?
Answer: 173 to 175 °C

Question: What about the inhibition of growth at 200 ppm [4] of the same molecule?
Answer: ≥ 80%

Question: With CC(C)CC(C)(Cc1ccccc1)NC(=O)c1cc2cccc(F)c2nc1F (stereo not shown) [Compound E-125, N-(1-benzyl-1,3-dimethyl-butyl)-2,8-difluoro-quinoline-3-carboxamide] as the molecule, how does the pest or weed control at 200 ppm [1] read?
Answer: ≥ 80%

Question: What about the inhibition of growth at 200 ppm [2] of the same molecule?
Answer: ≥ 80%

Question: And the inhibition of growth at 200 ppm [3]?
Answer: ≥ 80%

Question: What about the inhibition of growth at 200 ppm [4] of the same molecule?
Answer: ≥ 80%

Question: For CC(C)(Cc1ccccc1OC(F)(F)F)NC(=O)c1cnc2ccccc2c1 [Compound E-3, N-[1,1-dimethyl-2-[2-(trifluoromethoxy)phenyl]ethyl]quinoline-3-carboxamide], which melting point is on record?
Answer: 145 to 149 °C

Question: And the inhibition of growth at 200 ppm [4]?
Answer: ≥ 80%

Question: Which inhibition of growth at 200 ppm [2] does the source give for CC(C)CC(C)(Cc1ccccc1)NC(=O)c1cnc2cccc(O)c2c1 (stereo not shown) [Compound E-87, N-(1-benzyl-1,3-dimethyl-butyl)-5-hydroxy-quinoline-3-carboxamide] here?
Answer: ≥ 80%

Question: What about the inhibition of growth at 200 ppm [3] of the same molecule?
Answer: ≥ 80%

Question: What about the melting point of the same molecule?
Answer: 90 to 95 °C

Question: And the inhibition of growth at 200 ppm [4]?
Answer: ≥ 80%

Question: Which results are given for CC(Cc1ccccc1)(CC(F)(F)F)NC(=O)c1cnc2cc(C#N)ccc2c1 (stereo not shown) [Compound E-70, N-(1-benzyl-3,3,3-trifluoro-1-methyl-propyl)-7-cyano-quinoline-3-carboxamide]?
Answer: pest or weed control at 200 ppm [1]: ≥ 80%; inhibition of growth at 200 ppm [2]: ≥ 80%; melting point: 172 to 174 °C; inhibition of growth at 200 ppm [4]: ≥ 80%

Question: Which pest or weed control at 200 ppm [1] does the source give for CC(C)C[C@](C)(Cc1ccccc1)NC(=O)c1cnc2c(F)c(F)ccc2c1 [Compound F-21, N-[(1R)-1-benzyl-1,3-dimethyl-butyl]-7,8-difluoro-quinoline-3-carboxamide] here?
Answer: ≥ 80%

Question: What about the inhibition of growth at 200 ppm [2] of the same molecule?
Answer: ≥ 80%

Question: What about the inhibition of growth at 200 ppm [3] of the same molecule?
Answer: ≥ 80%

Question: And the inhibition of growth at 200 ppm [4]?
Answer: ≥ 80%

Question: For Cc1cccc2ncc(C(=O)NC(C)(Cc3ccccc3)CC(C)C)cc12 (stereo not shown) [Compound E-85, N-(1-benzyl-1,3-dimethyl-butyl)-5-methyl-quinoline-3-carboxamide], which pest or weed control at 200 ppm [1] is on record?
Answer: ≥ 80%

Question: And the inhibition of growth at 200 ppm [2]?
Answer: ≥ 80%

Question: What about the melting point of the same molecule?
Answer: 79 to 81 °C

Question: What about the inhibition of growth at 200 ppm [4] of the same molecule?
Answer: ≥ 80%

Question: Which results are given for Cc1c(C(=O)NC(C)(Cc2ccccc2)CC(F)(F)F)cnc2c(C#N)cccc12 (stereo not shown) [Compound E-105, N-(1-benzyl-3,3,3-trifluoro-1-methyl-propyl)-8-cyano-4-methyl-quinoline-3-carboxamide]?
Answer: pest or weed control at 200 ppm [1]: ≥ 80%; inhibition of growth at 200 ppm [2]: ≥ 80%; melting point: 194 to 197 °C

Question: Which pest or weed control at 200 ppm [1] does the source give for C[C@](Cc1ccccc1)(CC(F)(F)F)NC(=O)c1cnc2c(Cl)cccc2c1 [Compound F-35, N-[(1S)-1-benzyl-3,3,3-trifluoro-1-methyl-propyl]-8-chloro-quinoline-3-carboxamide] here?
Answer: ≥ 80%

Question: What about the inhibition of growth at 200 ppm [2] of the same molecule?
Answer: ≥ 80%

Question: And the inhibition of growth at 200 ppm [3]?
Answer: ≥ 80%

Question: And the inhibition of growth at 200 ppm [4]?
Answer: ≥ 80%

Question: Which inhibition of growth at 200 ppm [2] does the source give for CC(C)CC(C)(Cc1ccccc1)NC(=O)c1cnc2cccc(Cl)c2c1 (stereo not shown) [Compound E-64, N-(1-benzyl-1,3-dimethyl-butyl)-5-chloro-quinoline-3-carboxamide] here?
Answer: ≥ 80%

Question: And the melting point?
Answer: 50 to 60 °C

Question: What about the inhibition of growth at 200 ppm [4] of the same molecule?
Answer: ≥ 80%

Question: What does the source list for CC(C)C[C@](C)(Cc1ccccc1)NC(=O)c1cnc2cc(F)ccc2c1 [Compound F-13, N-[(1R)-1-benzyl-1,3-dimethyl-butyl]-7-fluoro-quinoline-3-carboxamide]?
Answer: pest or weed control at 200 ppm [1]: ≥ 80%; inhibition of growth at 200 ppm [2]: ≥ 80%; inhibition of growth at 200 ppm [3]: ≥ 80%; inhibition of growth at 200 ppm [4]: ≥ 80%

Question: What does the source list for Cc1nc2c(F)cccc2cc1C(=O)NC(C)(Cc1ccccc1)CC(F)(F)F (stereo not shown) [Compound E-89, N-(1-benzyl-3,3,3-trifluoro-1-methyl-propyl)-8-fluoro-2-methyl-quinoline-3-carboxamide]?
Answer: pest or weed control at 200 ppm [1]: ≥ 80%; inhibition of growth at 200 ppm [2]: ≥ 80%; inhibition of growth at 200 ppm [3]: ≥ 80%; inhibition of growth at 200 ppm [4]: ≥ 80%

Question: For C[C@](Cc1ccccc1)(CC(F)(F)F)NC(=O)c1cnc2c(F)cccc2c1 [Compound F-11, N-[(1S)-1-benzyl-3,3,3-trifluoro-1-methyl-propyl]-8-fluoro-quinoline-3-carboxamide], which pest or weed control at 200 ppm [1] is on record?
Answer: ≥ 80%

Question: And the inhibition of growth at 200 ppm [2]?
Answer: ≥ 80%

Question: And the inhibition of growth at 200 ppm [3]?
Answer: ≥ 80%

Question: And the inhibition of growth at 200 ppm [4]?
Answer: ≥ 80%

Question: For CC(C)CC(C)(Cc1ccccc1)NC(=O)c1cnc2cc(C#N)ccc2c1 (stereo not shown) [Compound E-67, N-(1-benzyl-1,3-dimethyl-butyl)-7-cyano-quinoline-3-carboxamide], which pest or weed control at 200 ppm [1] is on record?
Answer: ≥ 80%

Question: And the inhibition of growth at 200 ppm [2]?
Answer: ≥ 80%

Question: What about the melting point of the same molecule?
Answer: 170 to 172 °C

Question: What about the inhibition of growth at 200 ppm [4] of the same molecule?
Answer: ≥ 80%

Question: Which pest or weed control at 200 ppm [1] does the source give for Cc1c(C(=O)NC(C)(Cc2ccccc2)CC(C)C)cnc2c(Cl)cccc12 (stereo not shown) [Compound E-107, N-(1-benzyl-1,3-dimethyl-butyl)-8-chloro-4-methyl-quinoline-3-carboxamide] here?
Answer: ≥ 80%

Question: What about the inhibition of growth at 200 ppm [2] of the same molecule?
Answer: ≥ 80%

Question: What about the melting point of the same molecule?
Answer: 65 to 70 °C

Question: And the inhibition of growth at 200 ppm [4]?
Answer: ≥ 80%

Question: Which results are given for C[C@@](Cc1ccccc1)(CC(F)(F)F)NC(=O)c1cnc2c(F)cccc2c1 [Compound F-12, N-[(1R)-1-benzyl-3,3,3-trifluoro-1-methyl-propyl]-8-fluoro-quinoline-3-carboxamide]?
Answer: pest or weed control at 200 ppm [1]: ≥ 80%; inhibition of growth at 200 ppm [2]: ≥ 80%; inhibition of growth at 200 ppm [3]: ≥ 80%; inhibition of growth at 200 ppm [4]: ≥ 80%

Question: What does the source list for CC(Cc1ccccc1)(CC(F)(F)F)NC(=O)c1cnc2c(F)cccc2c1Cl (stereo not shown) [Compound E-96, N-(1-benzyl-3,3,3-trifluoro-1-methyl-propyl)-4-chloro-8-fluoro-quinoline-3-carboxamide]?
Answer: pest or weed control at 200 ppm [1]: ≥ 80%; inhibition of growth at 200 ppm [2]: ≥ 80%; inhibition of growth at 200 ppm [3]: ≥ 80%; inhibition of growth at 200 ppm [4]: ≥ 80%

Question: With C[C@@](Cc1ccccc1)(CC(F)F)NC(=O)c1cnc2c(F)cccc2c1 [Compound F-31, N-[(1R)-1-benzyl-3,3-difluoro-1-methyl-propyl]-8-fluoro-quinoline-3-carboxamide] as the molecule, how does the pest or weed control at 200 ppm [1] read?
Answer: ≥ 80%

Question: And the inhibition of growth at 200 ppm [2]?
Answer: ≥ 80%

Question: And the inhibition of growth at 200 ppm [3]?
Answer: ≥ 80%

Question: And the inhibition of growth at 200 ppm [4]?
Answer: ≥ 80%

Question: For CC(C#N)(Cc1ccccc1F)NC(=O)c1cnc2ccccc2c1 (stereo not shown) [Compound E-4, N-[1-cyano-2-(2-fluorophenyl)-1-methyl-ethyl]quinoline-3-carboxamide], which inhibition of growth at 200 ppm [2] is on record?
Answer: ≥ 80%

Question: And the melting point?
Answer: 134 to 139 °C

Question: With CC(C)C[C@@](C)(Cc1ccccc1)NC(=O)c1cnc2cc(F)ccc2c1 [Compound F-14, N-[(1S)-1-benzyl-1,3-dimethyl-butyl]-7-fluoro-quinoline-3-carboxamide] as the molecule, how does the pest or weed control at 200 ppm [1] read?
Answer: ≥ 80%

Question: What about the inhibition of growth at 200 ppm [2] of the same molecule?
Answer: ≥ 80%

Question: What about the inhibition of growth at 200 ppm [3] of the same molecule?
Answer: ≥ 80%

Question: And the inhibition of growth at 200 ppm [4]?
Answer: ≥ 80%

Question: For CC(Cc1ccccc1)(CC1CCC1)NC(=O)c1cnc2ccccc2c1 (stereo not shown) [Compound E-111, N-(1-benzyl-2-cyclobutyl-1-methyl-ethyl)quinoline-3-carboxamide], which inhibition of growth at 200 ppm [2] is on record?
Answer: ≥ 80%

Question: What about the inhibition of growth at 200 ppm [3] of the same molecule?
Answer: ≥ 80%

Question: What about the melting point of the same molecule?
Answer: 88 to 90 °C

Question: And the inhibition of growth at 200 ppm [4]?
Answer: ≥ 80%

Question: With CC(Cc1ccccc1)(CC(F)(F)F)NC(=O)c1cnc2cccc(Cl)c2c1 (stereo not shown) [Compound E-68, N-(1-benzyl-3,3,3-trifluoro-1-methyl-propyl)-5-chloro-quinoline-3-carboxamide] as the molecule, how does the inhibition of growth at 200 ppm [2] read?
Answer: ≥ 80%

Question: What about the melting point of the same molecule?
Answer: 85 to 88 °C

Question: Which pest or weed control at 200 ppm [1] does the source give for C[C@@](Cc1ccccc1)(CC(F)(F)F)NC(=O)c1cnc2c(Cl)cccc2c1 [Compound F-36, N-[(1R)-1-benzyl-3,3,3-trifluoro-1-methyl-propyl]-8-chloro-quinoline-3-carboxamide] here?
Answer: ≥ 80%

Question: What about the inhibition of growth at 200 ppm [2] of the same molecule?
Answer: ≥ 80%

Question: And the inhibition of growth at 200 ppm [3]?
Answer: ≥ 80%

Question: What about the inhibition of growth at 200 ppm [4] of the same molecule?
Answer: ≥ 80%
